Legend:
[1] = target: T1, recombinant human ULK1 protein (1-649) (Homo sapiens, UniProt O75385); test: ULK1 inhibition assay (ADP Glo); type: biochemical; conditions: Table 1; 25 uM ATP, MBP substrate, one hour
T1 construct: recombinant human ULK1 protein (1-649, SignalChem #U01-11G); purchased SignalChem U01-11G
T1 sequence (O75385 1-649): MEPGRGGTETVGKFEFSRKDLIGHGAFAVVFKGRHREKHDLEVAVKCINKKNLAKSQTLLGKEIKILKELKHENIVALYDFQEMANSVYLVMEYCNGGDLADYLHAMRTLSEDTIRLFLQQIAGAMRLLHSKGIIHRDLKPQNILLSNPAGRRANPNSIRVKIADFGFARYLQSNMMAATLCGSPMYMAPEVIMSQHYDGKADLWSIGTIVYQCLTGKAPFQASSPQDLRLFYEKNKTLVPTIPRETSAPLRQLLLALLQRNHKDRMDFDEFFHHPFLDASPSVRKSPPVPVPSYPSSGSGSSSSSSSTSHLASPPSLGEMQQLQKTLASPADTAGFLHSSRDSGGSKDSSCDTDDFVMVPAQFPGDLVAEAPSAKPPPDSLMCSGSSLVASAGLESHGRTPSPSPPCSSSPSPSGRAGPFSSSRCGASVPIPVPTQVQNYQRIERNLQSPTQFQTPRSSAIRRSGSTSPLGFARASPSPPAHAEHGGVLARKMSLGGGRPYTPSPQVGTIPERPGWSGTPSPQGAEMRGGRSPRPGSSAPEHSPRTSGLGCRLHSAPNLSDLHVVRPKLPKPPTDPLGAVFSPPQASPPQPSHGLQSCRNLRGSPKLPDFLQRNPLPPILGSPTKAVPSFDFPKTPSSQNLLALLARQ
Summary of the method: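 Recombinant ULK1 (2 ug/mL) phosphorylated myelin basic protein (80 ug/mL) at 25 uM ATP; ADP formed was detected by ADP-Glo after 1 h. Compounds ran in triplicate, 16-dose 3-fold serial dilution from 30 uM, to give IC50.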

NanoLuc®-ULK1 Fusion = target: T2, NanoLuc®-ULK1 Fusion (Homo sapiens, UniProt O75385); test: ULK1 NanoBRET assay in HEK293T cells; type: cell-based; conditions: Table 1, 2 h incubation
T2 construct: host or cells: HEK293T
T2 sequence (O75385 1-1050): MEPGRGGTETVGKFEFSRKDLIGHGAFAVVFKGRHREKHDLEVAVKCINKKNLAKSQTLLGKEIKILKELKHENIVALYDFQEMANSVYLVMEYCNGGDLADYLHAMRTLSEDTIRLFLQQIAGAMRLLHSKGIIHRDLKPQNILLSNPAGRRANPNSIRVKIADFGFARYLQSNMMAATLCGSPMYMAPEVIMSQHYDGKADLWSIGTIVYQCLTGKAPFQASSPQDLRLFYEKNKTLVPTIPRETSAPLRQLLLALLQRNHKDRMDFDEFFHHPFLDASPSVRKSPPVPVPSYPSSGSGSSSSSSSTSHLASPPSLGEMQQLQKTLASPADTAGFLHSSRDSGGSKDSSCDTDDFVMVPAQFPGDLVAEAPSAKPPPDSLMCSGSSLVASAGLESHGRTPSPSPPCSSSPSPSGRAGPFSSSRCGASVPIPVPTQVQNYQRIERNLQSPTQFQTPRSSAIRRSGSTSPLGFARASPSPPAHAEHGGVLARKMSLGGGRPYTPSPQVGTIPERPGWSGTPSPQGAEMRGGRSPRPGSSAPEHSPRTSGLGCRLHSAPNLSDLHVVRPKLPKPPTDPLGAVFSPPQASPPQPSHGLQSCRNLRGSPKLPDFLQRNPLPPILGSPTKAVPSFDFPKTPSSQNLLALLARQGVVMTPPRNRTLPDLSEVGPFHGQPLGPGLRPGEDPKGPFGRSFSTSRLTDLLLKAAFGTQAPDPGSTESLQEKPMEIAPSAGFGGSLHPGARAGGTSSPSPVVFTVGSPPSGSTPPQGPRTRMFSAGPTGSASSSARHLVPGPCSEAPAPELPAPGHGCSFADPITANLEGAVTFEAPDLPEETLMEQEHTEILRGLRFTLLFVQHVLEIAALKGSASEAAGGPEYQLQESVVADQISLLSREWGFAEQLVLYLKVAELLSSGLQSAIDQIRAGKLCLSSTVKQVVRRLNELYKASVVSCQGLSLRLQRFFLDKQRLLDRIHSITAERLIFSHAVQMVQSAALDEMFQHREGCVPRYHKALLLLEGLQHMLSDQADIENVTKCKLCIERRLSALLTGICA
Protocol: IC50s were also measured by ULK1 NanoBRET assay according to the following protocol: Human embryonic kidney cells (HEK293T) were transfected with NanoLuc®-ULK1 Fusion Vector (Promega #NV2211) using jetPRIME transfection reagent (Polyplus Transfection #114-15). Following 24 h, cells were trypsinized and resuspended in Opti-MEM® I (1×), Reduced Serum Medium (Gibco, #11058-021). Approximately, 7,000 cells per well (in 34 μL total volume) were replated into non-binding surface 384 well plates. Complete NanoBRET 20× Tracer K-5 reagent was prepared according to the manufacturer's directions and 2 μL were added to each well of the 384 plate (assay plate). The assay plate was mixed on an orbital shaker for 15 seconds at 700 rpm. Compounds were serially diluted at 200× final concentration in 100% DMSO, then diluted to 10× final concentration in assay media (Opti-MEM® I, Reduced Serum Medium). Next, 4 μL 10× test compounds were added to each well of the assay plate, followed by mixing at 700 rpm for 15 seconds. The assay plate was incubated for 2 h in a 37 C incubator with 5% CO2 and then equilibrated to RT for 15 min. The 3× Complete Substrate plus Inhibitor Solution was prepared according to the manufacturer's directions with a concentration of Extracellular NanoLuc® Inhibitor of 60 μM to be used at a working concentration of […]. The 3× Complete Substrate plus Inhibitor Solution was mixed and 20 μL per well was added to the assay plate and incubated at RT for 2-3 min. Donor emission wavelength (450 nm) and acceptor emission wavelength (610 nm) were measured using an assay compatible luminometer (see manufacturer's specifications).

SMILES: CNC(=O)c1ccccc1Nc1nc(Nc2ccc3c(c2)CCN(CCOC)C3)ncc1C(F)(F)F [Compound A119, 2-((2-((2-(2-Methoxyethyl)-1,2,3,4-tetrahydroisoquinolin-6-yl)amino)-5-(trifluoromethyl)pyrimidin-4-yl)amino)-N-methylbenzamide]
- IC50 [1]: 1 to 10 nM
- IC50 (NanoLuc®-ULK1 Fusion): < 100 nM

SMILES: FC(F)(F)c1cnc(Nc2ccc3c(c2)CNC3)nc1NC1CC1 [Compound A55]
- IC50 [1]: < 1 nM
- IC50 (NanoLuc®-ULK1 Fusion): < 100 nM

SMILES: CC(=O)N1CCc2cc(Nc3ncc(C(F)(F)F)c(NC4CC4)n3)ccc2C1 [Compound A19]
- IC50 [1]: < 1 nM
- IC50 (NanoLuc®-ULK1 Fusion): < 100 nM

From US20230135635A1, “INHIBITORS OF ULK1/2 AND METHODS OF USING SAME” (SALK INSTITUTE FOR BIOLOGICAL STUDIES, priority 2020, published 2023)
